{"source": "patent US12486253B2", "about": "“Therapeutics for the degradation of mutant BRAF” (C4 THERAPEUTICS, INC., priority 2021, dated 2025)", "biological_target": "BRAF V600E (Homo sapiens, UniProt P15056, V600E)", "sequence (P15056 whole entry V600E)": "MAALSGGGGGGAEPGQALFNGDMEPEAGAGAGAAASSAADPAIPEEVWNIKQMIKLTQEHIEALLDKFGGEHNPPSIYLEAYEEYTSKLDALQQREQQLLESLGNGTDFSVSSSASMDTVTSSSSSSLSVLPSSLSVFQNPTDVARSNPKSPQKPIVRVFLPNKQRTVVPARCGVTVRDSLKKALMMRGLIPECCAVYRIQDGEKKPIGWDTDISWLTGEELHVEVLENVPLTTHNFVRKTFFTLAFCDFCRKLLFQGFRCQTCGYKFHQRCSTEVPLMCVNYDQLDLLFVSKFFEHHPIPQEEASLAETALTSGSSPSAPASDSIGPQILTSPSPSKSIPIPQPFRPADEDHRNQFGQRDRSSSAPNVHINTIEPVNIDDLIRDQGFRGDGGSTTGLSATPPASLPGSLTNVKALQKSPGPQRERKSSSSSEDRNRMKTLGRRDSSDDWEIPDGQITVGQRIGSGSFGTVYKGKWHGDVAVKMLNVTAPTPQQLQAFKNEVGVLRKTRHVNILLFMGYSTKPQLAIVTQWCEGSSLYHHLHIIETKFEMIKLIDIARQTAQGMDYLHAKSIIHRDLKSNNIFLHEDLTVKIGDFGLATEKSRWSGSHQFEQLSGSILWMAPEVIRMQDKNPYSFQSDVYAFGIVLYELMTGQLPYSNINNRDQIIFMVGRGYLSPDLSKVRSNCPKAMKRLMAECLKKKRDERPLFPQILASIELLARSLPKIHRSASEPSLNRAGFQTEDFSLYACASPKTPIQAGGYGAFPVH", "assay": "HiBiT cellular BRAF^V600E degradation assay", "format": "cell-based", "details": "for DC50: concentration at which 50% of total cellular BRAF^V600E is degraded; for Emax: read-out: HiBit 24 h Emax", "key": {"[1]": {"details": "A375.10 cells, 24 h, residual protein remaining in the cell"}}, "note": "Read-outs that look alike come from different tables or passages of the source.", "data": [{"smiles": "CCN(C)S(=O)(=O)Nc1ccc(F)c(Oc2ccc3ncn(-c4cnc(N5CCN(C(=O)CN6CCC(c7cc(OC)c(NC8CCC(=O)NC8=O)cc7F)CC6)CC5)nc4)c(=O)c3c2)c1C#N", "note": "(stereo not shown) [Example 88, 6-[2-cyano-3-[[ethyl(methyl)sulfamoyl]amino]-6-fluorophenoxy]-3-[2-[4-[2-[4-[4-[(2,6-dioxopiperidin-3-yl)amino]-2-fluoro-5-methoxyphenyl]piperidin-1-yl]acetyl]piperazin-1-yl]pyrimidin-5-yl]-4-oxoquinazoline]", "values": [{"measurement": "DC50", "setting": "A375.10 cells, 24 h", "result": 15.1, "unit": "nM"}, {"measurement": "Emax", "result": 9.01, "unit": "%"}]}, {"smiles": "CCN(C)S(=O)(=O)Nc1ccc(F)c(Oc2ccc3ncn(-c4cnc(N5CCN(C(=O)CN6CCC(c7c(F)cc(NC8CCC(=O)NC8=O)cc7OC)CC6)CC5)nc4)c(=O)c3c2)c1C#N", "note": "(stereo not shown) [Example 89, 6-[2-cyano-3-[[ethyl(methyl)sulfamoyl]amino]-6-fluorophenoxy]-3-[2-[4-[2-[4-[4-[(2,6-dioxopiperidin-3-yl)amino]-2-fluoro-6-methoxyphenyl]piperidin-1-yl]acetyl]piperazin-1-yl]pyrimidin-5-yl]-4-oxoquinazoline]", "values": [{"measurement": "DC50", "setting": "A375.10 cells, 24 h", "result": 33, "unit": "nM"}, {"measurement": "Emax", "setting": "[1]", "result": 11.5, "unit": "%"}]}, {"smiles": "CCN(C)S(=O)(=O)Nc1ccc(F)c(Oc2ccc3ncn(-c4ccc(N5CCN(C(=O)CN6CCC(c7cc(OC)c(NC8CCC(=O)NC8=O)cc7F)CC6)CC5)nc4)c(=O)c3c2)c1C#N", "note": "(stereo not shown) [Example 90, 6-[2-cyano-3-[[ethyl(methyl)sulfamoyl]amino]-6-fluorophenoxy]-3-[6-[4-[2-[4-[4-[(2,6-dioxopiperidin-3-yl)amino]-2-fluoro-5-methoxyphenyl]piperidin-1-yl]acetyl]piperazin-1-yl]pyridin-3-yl]-4-oxoquinazoline]", "values": [{"measurement": "DC50", "setting": "A375.10 cells, 24 h", "result": 23.5, "unit": "nM"}, {"measurement": "Emax", "result": 10.7, "unit": "%"}]}, {"smiles": "CCN(C)S(=O)(=O)Nc1ccc(F)c(Oc2ccc3ncn(-c4cnc(N5CCN(C(=O)CN6CCC(c7ccc(N[C@H]8CCC(=O)NC8=O)cc7F)CC6)CC5)nc4)c(=O)c3c2)c1C#N", "note": "[Example 92, 6-[2-cyano-3-[[ethyl(methyl)sulfamoyl]amino]-6-fluorophenoxy]-3-[2-[4-[2-[4-[4-[[(3S)-2,6-dioxopiperidin-3-yl]amino]-2-fluorophenyl]piperidin-1-yl]acetyl]piperazin-1-yl]pyrimidin-5-yl]-4-oxoquinazoline]", "values": [{"measurement": "DC50", "setting": "A375.10 cells, 24 h", "result": 8.71, "unit": "nM"}, {"measurement": "Emax", "result": 7.37, "unit": "%"}]}, {"smiles": "CCN(C)S(=O)(=O)Nc1ccc(F)c(Oc2ccc3ncn(-c4ccc(N5CCN(C(=O)CN6CCC(c7ccc(N[C@@H]8CCC(=O)NC8=O)cc7F)CC6)CC5)nc4)c(=O)c3c2)c1C#N", "note": "[Example 93, 6-[2-cyano-3-[[ethyl(methyl)sulfamoyl]amino]-6-fluorophenoxy]-3-[6-[4-[2-[4-[4-[[(3R)-2,6-dioxopiperidin-3-yl]amino]-2-fluorophenyl]piperidin-1-yl]acetyl]piperazin-1-yl]pyridin-3-yl]-4-oxoquinazoline]", "values": [{"measurement": "DC50", "setting": "A375.10 cells, 24 h", "result": 28, "unit": "nM"}, {"measurement": "Emax", "setting": "[1]", "result": 14.1, "unit": "%"}]}, {"smiles": "CCN(C)S(=O)(=O)Nc1ccc(F)c(Oc2ccc3ncn(-c4ccc(N5CCN(C(=O)CN6CCC(c7ccc(N[C@H]8CCC(=O)NC8=O)cc7F)CC6)CC5)nc4)c(=O)c3c2)c1C#N", "note": "[Example 94, 6-[2-cyano-3-[[ethyl(methyl)sulfamoyl]amino]-6-fluorophenoxy]-3-[6-[4-[2-[4-[4-[[(3S)-2,6-dioxopiperidin-3-yl]amino]-2-fluorophenyl]piperidin-1-yl]acetyl]piperazin-1-yl]pyridin-3-yl]-4-oxoquinazoline]", "values": [{"measurement": "DC50", "setting": "A375.10 cells, 24 h", "result": 21.5, "unit": "nM"}, {"measurement": "Emax", "setting": "[1]", "result": 10.5, "unit": "%"}]}, {"smiles": "CCN(C)S(=O)(=O)Nc1ccc(F)c(Oc2ccc3ncn(-c4cnc(N5CCN(C(=O)CN6CCC(c7ccc(N[C@@H]8CCC(=O)NC8=O)cc7F)CC6)CC5)nc4)c(=O)c3c2)c1C#N", "note": "[Example 95, 6-[2-cyano-3-[[ethyl(methyl)sulfamoyl]amino]-6-fluorophenoxy]-3-[2-[4-[2-[4-[4-[[(3R)-2,6-dioxopiperidin-3-yl]amino]-2-fluorophenyl]piperidin-1-yl]acetyl]piperazin-1-yl]pyrimidin-5-yl]-4-oxoquinazoline]", "values": [{"measurement": "DC50", "setting": "A375.10 cells, 24 h", "result": 10.7, "unit": "nM"}, {"measurement": "Emax", "result": 10.4, "unit": "%"}]}, {"smiles": "CO[C@@H]1CCN(S(=O)(=O)Nc2ccc(F)c(Oc3ccc4ncn(-c5cnc(N6CCN(C(=O)CN7CCC(c8ccc(N[C@H]9CCC(=O)NC9=O)cc8F)CC7)CC6)nc5)c(=O)c4c3)c2C#N)C1", "note": "[Example 96, (3R)—N-[2-cyano-3-[3-[2-[4-[2-[4-[4-[[(3S)-2,6-dioxopiperidin-3-yl]amino]-2-fluorophenyl]piperidin-1-yl]acetyl]piperazin-1-yl]pyrimidin-5-yl]-4-oxoquinazolin-6-yl]oxy-4-fluorophenyl]-3-methoxypyrrolidine-1-sulfonamide]", "values": [{"measurement": "DC50", "setting": "A375.10 cells, 24 h", "result": 9.91, "unit": "nM"}, {"measurement": "Emax", "result": 8.43, "unit": "%"}]}, {"smiles": "CO[C@@H]1CCN(S(=O)(=O)Nc2ccc(F)c(Oc3ccc4ncn(-c5cnc(N6CCN(C(=O)CN7CCC(c8ccc(N[C@@H]9CCC(=O)NC9=O)cc8F)CC7)CC6)nc5)c(=O)c4c3)c2C#N)C1", "note": "[Example 97, (3R)—N-[2-cyano-3-[3-[2-[4-[2-[4-[4-[[(3R)-2,6-dioxopiperidin-3-yl]amino]-2-fluorophenyl]piperidin-1-yl]acetyl]piperazin-1-yl]pyrimidin-5-yl]-4-oxoquinazolin-6-yl]oxy-4-fluorophenyl]-3-methoxypyrrolidine-1-sulfonamide]", "values": [{"measurement": "DC50", "setting": "A375.10 cells, 24 h", "result": 8.41, "unit": "nM"}, {"measurement": "Emax", "setting": "[1]", "result": 10.6, "unit": "%"}]}, {"smiles": "CCN(C)S(=O)(=O)Nc1ccc(F)c(Oc2ccc3ncn(-c4cnc(N5CCN(C(=O)[C@H](CO)N6CCC(c7ccc(N[C@H]8CCC(=O)NC8=O)cc7F)CC6)CC5)nc4)c(=O)c3c2)c1C#N", "note": "[Example 98, 6-[2-cyano-3-[[ethyl(methyl)sulfamoyl]amino]-6-fluorophenoxy]-3-[2-[4-[(2S)-2-[4-[4-[[(3S)-2,6-dioxopiperidin-3-yl]amino]-2-fluorophenyl]piperidin-1-yl]-3-hydroxypropanoyl]piperazin-1-yl]pyrimidin-5-yl]-4-oxoquinazoline]", "values": [{"measurement": "Emax", "result": 10.1, "unit": "%"}]}, {"smiles": "CCN(C)S(=O)(=O)Nc1ccc(F)c(Oc2ccc3ncn(-c4cnc(N5CCN(C(=O)CN6CCC(c7ccc(N[C@@H]8CCC(=O)NC8=O)cc7F)CC6)CC5)nc4)c(=O)c3c2OC)c1C#N", "note": "[Example 99, 6-[2-cyano-3-[[ethyl(methyl)sulfamoyl]amino]-6-fluorophenoxy]-3-[2-[4-[2-[4-[4-[[(3R)-2,6-dioxopiperidin-3-yl]amino]-2-fluorophenyl]piperidin-1-yl]acetyl]piperazin-1-yl]pyrimidin-5-yl]-5-methoxy-4-oxoquinazoline]", "values": [{"measurement": "DC50", "setting": "A375.10 cells, 24 h", "result": 34.2, "unit": "nM"}, {"measurement": "Emax", "setting": "[1]", "result": 11.4, "unit": "%"}]}, {"smiles": "CCN(C)S(=O)(=O)Nc1ccc(F)c(Oc2ccc3ncn(-c4cnc(N5CCN(C(=O)CN6CCC(c7ccc(N[C@H]8CCC(=O)NC8=O)cc7F)CC6)CC5)nc4)c(=O)c3c2OC)c1C#N", "note": "[Example 100, 6-[2-cyano-3-[[ethyl(methyl)sulfamoyl]amino]-6-fluorophenoxy]-3-[2-[4-[2-[4-[4-[[(3S)-2,6-dioxopiperidin-3-yl]amino]-2-fluorophenyl]piperidin-1-yl]acetyl]piperazin-1-yl]pyrimidin-5-yl]-5-methoxy-4-oxoquinazoline]", "values": [{"measurement": "DC50", "setting": "A375.10 cells, 24 h", "result": 16.4, "unit": "nM"}, {"measurement": "Emax", "setting": "[1]", "result": 8.4, "unit": "%"}]}, {"smiles": "CCN(C)S(=O)(=O)Nc1ccc(F)c(Oc2ccc3ncn(-c4cnc(N5CCN(C(=O)CN6CCC(c7ccc(N[C@@H]8CCC(=O)NC8=O)cc7F)CC6)CC5)nc4)c(=O)c3c2N)c1C#N", "note": "[Example 101, 5-amino-6-[2-cyano-3-[[ethyl(methyl)sulfamoyl]amino]-6-fluorophenoxy]-3-[2-[4-[2-[4-[4-[[(3R)-2,6-dioxopiperidin-3-yl]amino]-2-fluorophenyl]piperidin-1-yl]acetyl]piperazin-1-yl]pyrimidin-5-yl]-4-oxoquinazoline]", "values": [{"measurement": "DC50", "setting": "A375.10 cells, 24 h", "result": 27.7, "unit": "nM"}, {"measurement": "Emax", "setting": "[1]", "result": 11.6, "unit": "%"}]}]}
